Measured values: patent US11230543B2, “Biaryl monobactam compounds and methods of use thereof for the treatment of bacterial infections” (priority 2015, dated 2022)
Where a name gives a salt, the structure may show the parent alone.

Assays:
[1] = test system: Pseudomonas aeruginosa expressing AmpC (CL5701); test: Antibiotic activity: growth inhibitory concentration (OD600), Pseudomonas aeruginosa CL5701; format: cell-based; details: lowest concentration inhibiting 95% of bacterial growth; in the presence of β lactamase inhibitor Relebactam 4 μg/mL; 35±2° C. for 22 hours; tested range 100 μM to 0.098 μM
Procedure, shortened: (§1)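 Clinical strains at ~2×10^5 CFU/mL in cation-adjusted Mueller-Hinton II broth, with relebactam at 4 μg/mL final; compounds 100 μM to 0.098 μM final. After 22 hours at 35±2° C, OD600 read; MITC95 is lowest concentration giving 95% growth inhibition.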

[2] = test system: Klebsiella pneumoniae expressing KPC-1 (CL6569); test: Antibiotic activity: growth inhibitory concentration (OD600), Klebsiella pneumoniae CL6569; format: cell-based; details: lowest concentration inhibiting 95% of bacterial growth; in the presence of β lactamase inhibitor Relebactam 4 μg/mL; 35±2° C. for 22 hours; tested range 100 μM to 0.098 μM
Procedure, shortened: as §1

SMILES | PA_CL5701 MITC95 [1] [µM] | KP_CL6569 MITC95 [2] [µM]
C[n+]1cc(-c2ccc(OC[C@H](O/N=C(\C(=O)N[C@@H]3C(=O)N(OS(=O)(=O)[O-])C3(C)C)c3csc(N)n3)C(=O)O)cc2Cl)cn1CCCN [Example 38, (S)-3-((Z)-2-(((S)-2-(4-(1-(3-aminopropyl)-2-methyl-1H-pyrazol-2-ium-4-yl)-3-chlorophenoxy)-1-carboxyethoxy)imino)-2-(2-aminothiazol-4-yl)acetamido)-2,2-dimethyl-4-oxoazetidin-1-yl sulfate] | 6.25 | 0.3906
CC1(C)[C@H](NC(=O)/C(=N\O[C@@H](COc2ccc(Nc3cc[n+](CCCN)cc3)nc2)C(=O)O)c2csc(N)n2)C(=O)N1OS(=O)(=O)O [Example 33, 1-(3-aminopropyl)-4-((5-((S)-2-((((Z)-1-(2-aminothiazol-4-yl)-2-(((S)-2,2-dimethyl-4-oxo-1-(sulfooxy)azetidin-3-yl)amino)-2-oxoethylidene)amino)oxy)-2-carboxyethoxy)pyridin-2-yl)amino)pyridin-1-ium 2,2,2-trifluoroacetate] | 6.25 | 0.3906
CC1(C)[C@H](NC(=O)/C(=N\O[C@@H](COc2ccc(C3CN=C(NCCN)NC3)cc2)C(=O)O)c2csc(N)n2)C(=O)N1OS(=O)(=O)O (stereo partly drawn) [Example 94, (2S)-3-(4-(2-((2-aminoethyl)amino)-1,4,5,6-tetrahydropyrimidin-5-yl)phenoxy)-2-((((Z)-1-(2-aminothiazol-4-yl)-2-(((S)-2,2-dimethyl-4-oxo-1-(sulfooxy)azetidin-3-yl)amino)-2-oxoethylidene)amino)oxy)propanoic acid] | 3.125 | 0.1953
C[n+]1cc(OC[C@H](O/N=C(\C(=O)N[C@@H]2C(=O)N(OS(=O)(=O)O)C2(C)C)c2csc(N)n2)C(=O)O)ccc1-c1cnn(CCCN)c1.O=C([O-])C(F)(F)F [Example 26, 2-(1-(3-aminopropyl)-1H-pyrazol-4-yl)-5-((S)-2-((((Z)-1-(2-aminothiazol-4-yl)-2-(((S)-2,2-dimethyl-4-oxo-1-(sulfooxy)azetidin-3-yl)amino)-2-oxo-ethylidene)amino)oxy)-2-carboxyethoxy)-1-methylpyridin-1-ium 2,2,2-trifluoroacetate] | 50 | 1.563
C[n+]1cc(-c2ccc(CCC(O/N=C(\C(=O)N[C@@H]3C(=O)N(OS(=O)(=O)[O-])C3(C)C)c3csc(N)n3)C(=O)O)cc2)cn1CCCN (single isomer, unassigned) [Example 93] | 6.25 | 0.1953
CC1(C)[C@H](NC(=O)/C(=N\O[C@@H](COc2cnc(-n3cc[n+](CCCN)c3)nc2)C(=O)O)c2csc(N)n2)C(=O)N1OS(=O)(=O)[O-] [Example 111, (S)-3-((Z)-2-(((S)-2-((2-(3-(3-aminopropyl)-1H-imidazol-3-ium-1-yl)pyrimidin-5-yl)oxy)-1-carboxyethoxy)imino)-2-(2-aminothiazol-4-yl)acetamido)-2,2-dimethyl-4-oxoazetidin-1-yl sulfate] | 50 | 1.563
C[n+]1cc(-c2ccc(OC[C@@H](CO)O/N=C(\C(=O)N[C@@H]3C(=O)N(OS(=O)(=O)O)C3(C)C)c3csc(N)n3)cc2)ccc1NCCN [Example 89, (S)-3-((Z)-2-((((R)-1-(4-(6-((2-aminoethyl)amino)-1-methylpyridin-1-ium-3-yl)phenoxy)-3-hydroxypropan-2-yl)oxy)imino)-2-(2-aminothiazol-4-yl)acetamido)-2,2-dimethyl-4-oxoazetidin-1-yl sulfate] | 50 | 1.563
C[n+]1cc(-c2ccc(OC(CO/N=C(\C(=O)N[C@@H]3C(=O)N(OS(=O)(=O)[O-])C3(C)C)c3csc(N)n3)C(=O)O)cc2)cn1CCCN (single isomer, unassigned) [Example 85] | 40 | 2.5
C[n+]1cc(-c2ccc(NCC(O/N=C(\C(=O)N[C@@H]3C(=O)N(OS(=O)(=O)[O-])C3(C)C)c3csc(N)n3)C(=O)O)cc2)cn1CCCN (stereo partly drawn) [Example 91, (3S)-3-(2-((2-((4-(1-(3-aminopropyl)-2-methyl-1H-pyrazol-2-ium-4-yl)phenyl)amino)-1-carboxyethoxy)imino)-2-(2-aminothiazol-4-yl)acetamido)-2,2-dimethyl-4-oxoazetidin-1-yl sulfate] | 12.5 | 0.7813
CC1(C)[C@H](NC(=O)/C(=N\O[C@@H](COc2ccc(-c3cn(C[C@@H](O)CN)[n+](CC4CNC4)c3)cc2)C(=O)O)c2csc(N)n2)C(=O)N1OS(=O)(=O)[O-] [Example 52, (S)-3-((Z)-2-(((S)-2-(4-(1-((S)-3-Amino-2-hydroxypropyl)-2-(azetidin-3-ylmethyl)-1H-pyrazol-2-ium-4-yl)phenoxy)-1-carboxyethoxy)imino)-2-(2-aminothiazol-4-yl)acetamido)-2,2-dimethyl-4-oxoazetidin-1-yl sulfate] | 1.563 | 0.1953
C[n+]1cc(NCCN)ccc1-c1ccc(OC[C@H](O/N=C(\C(=O)N[C@@H]2C(=O)N(OS(=O)(=O)[O-])C2(C)C)c2csc(N)n2)C(=O)O)cc1 [Example 72, (S)-3-((Z)-2-(((S)-2-(4-(5-((2-aminoethyl)amino)-1-methylpyridin-1-ium-2-yl)phenoxy)-1-carboxyethoxy)imino)-2-(2-aminothiazol-4-yl)acetamido)-2,2-dimethyl-4-oxoazetidin-1-yl sulfate] | 6.25 | 0.3906
C[n+]1cc(-c2ccc(OC[C@H](O/N=C(\C(=O)N[C@@H]3C(=O)N(OS(=O)(=O)[O-])C3(C)C)c3csc(N)n3)C(=O)O)cc2)cn1CCCN [Example 1, (S)-3-((Z)-2-(2-aminothiazol-4-yl)-2-(((S)-2-(4-(1-(3-ammoniopropyl)-2-methyl-1H-pyrazol-2-ium-4-yl)phenoxy)-1-carboxyethoxy)imino)acetamido)-2,2-dimethyl-4-oxoazetidin-1-yl sulfate 2,2,2-trifluoroacetate] | 3.125 | 0.3906
C[n+]1cc(-c2ccc(OCCO/N=C(\C(=O)N[C@@H]3C(=O)N(OS(=O)(=O)O)C3(C)C)c3csc(N)n3)cc2)cn1CCCN [Example 4, (S,Z)-3-(2-((2-(4-(1-(3-aminopropyl)-2-methyl-1H-pyrazol-2-ium-4-yl)phenoxy)ethoxy)imino)-2-(2-aminothiazol-4-yl)acetamido)-2,2-dimethyl-4-oxoazetidin-1-yl sulfate] | 25 | 1.281
CC1(C)[C@H](NC(=O)/C(=N\OCCOc2ccc(-n3cc[n+](CCCN)c3)nc2)c2csc(N)n2)C(=O)N1OS(=O)(=O)[O-] [Example 35, (S,Z)-3-(2-((2-((6-(3-(3-aminopropyl)-1H-imidazol-3-ium-1-yl)pyridin-3-yl)oxy)ethoxy)imino)-2-(2-aminothiazol-4-yl)acetamido)-2,2-dimethyl-4-oxoazetidin-1-yl sulfate 2,2,2-trifluoroacetate] | 50 | 1.281
CC1(C)[C@H](NC(=O)/C(=N\O[C@@H](COc2ccc(C3CN=C(NCCN)N3)cc2)C(=O)O)c2csc(N)n2)C(=O)N1OS(=O)(=O)O (stereo partly drawn) [Example 60, (2S)-3-(4-(2-((2-aminoethyl)amino)-4,5-dihydro-1H-imidazol-5-yl)phenoxy)-2-((((Z)-1-(2-aminothiazol-4-yl)-2-(((S)-2,2-dimethyl-4-oxo-1-(sulfooxy)azetidin-3-yl)amino)-2-oxoethylidene)amino)oxy)propanoic acid] | 3.125 | 0.3906
C[n+]1cc(-c2ccc(OC[C@H](O/N=C(\C(=O)N[C@@H]3C(=O)N(OS(=O)(=O)[O-])C3(C)C)c3csc(N)n3)C(=O)O)cc2)ccc1CNC(CN)CN [Example 79, (S)-3-((Z)-2-(2-aminothiazol-4-yl)-2-(((S)-1-carboxy-2-(4-(6-(((1,3-diaminopropan-2-yl)amino)methyl)-1-methylpyridin-1-ium-3-yl)phenoxy)ethoxy)imino)acetamido)-2,2-dimethyl-4-oxoazetidin-1-yl sulfate] | 6.25 | 0.3906
CC1(C)[C@H](NC(=O)/C(=N\O[C@@H](COc2ccc(-c3cn(CCCN)nc3N)cc2)C(=O)O)c2csc(N)n2)C(=O)N1OS(=O)(=O)O [Example 27, (S)-3-(4-(3-amino-1-(3-aminopropyl)-1H-pyrazol-4-yl)phenoxy)-2-((((Z)-1-(2-aminothiazol-4-yl)-2-(((S)-2,2-dimethyl-4-oxo-1-(sulfooxy)azetidin-3-yl)amino)-2-oxoethylidene)amino)oxy)propanoic acid] | 6.25 | 0.7813
C[n+]1cc(-c2ccc(OC[C@H](O/N=C(/C(=O)N[C@@H]3C(=O)N(OS(=O)(=O)[O-])C3(C)C)c3csc(N)n3)C(=O)O)cc2)cn1CCCNCCN [Example 102, (S)-3-((E)-2-(((S)-2-(4-(1-(3-((2-aminoethyl)amino)propyl)-2-methyl-1H-pyrazol-2-ium-4-yl)phenoxy)-1-carboxyethoxy)imino)-2-(2-aminothiazol-4-yl)acetamido)-2,2-dimethyl-4-oxoazetidin-1-yl sulfate] | 3.125 | 0.125
C[n+]1c(N)c(-c2ccc(OC[C@H](O/N=C(\C(=O)N[C@@H]3C(=O)N(OS(=O)(=O)[O-])C3(C)C)c3nc(N)sc3Cl)C(=O)O)cc2)cn1CCCN [Example 49, (S)-3-((Z)-2-(((S)-2-(4-(3-Amino-1-(3-aminopropyl)-2-methyl-1H-pyrazol-2-ium-4-yl)phenoxy)-1-carboxyethoxy)imino)-2-(2-amino-5-chlorothiazol-4-yl)acetamido)-2,2-dimethyl-4-oxoazetidin-1-yl sulfate] | 6.25 | 0.7813
